Read-outs that look alike come from different tables or passages of the source.
How the values were obtained:
Assay type in all cases: in vivo
[1] = test system: winter barley (Hordeum vulgare); assay: Test C postemergence greenhouse test, plant response rating 0-100; details: for Plant response rating, Barley: scale 0 to 100
In short: (§1)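 Postemergence spray of formulated test chemicals on plants 2 to 18 cm tall (1- to 4-leaf stage) grown in peat/vermiculite medium. Greenhouse hold 13 to 15 days, then visual comparison with untreated controls on a 0-100 scale (0 no effect, 100 complete control); dash means no test result.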

[2] = test system: windgrass (Apera spica-venti); assay: as above
In short: as §1

[3] = test system: morningglory (Ipomoea coccinea); assay: Test C pre-/postemergence greenhouse test, plant response rating 0-100; details: Ipomoea; for pest or weed control at 62 g/ha: 62 g ai/ha; for pest or weed control at 125 g/ha: 125 g ai/ha; for pest or weed control at 250 g/ha: 250 g ai/ha
In short: (§2)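 Plants were treated either at seeding (soil of loam and sand) or as 2–18 cm seedlings in a sphagnum peat mix, using test chemicals in a surfactant-containing non-phytotoxic solvent. Visual assessment relative to controls followed 13–15 days later.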

[4] = test system: johnsongrass (Sorghum halepense); assay: as above; details: Sorghum halepense; for pest or weed control at 62 g/ha: 62 g ai/ha; for pest or weed control at 125 g/ha: 125 g ai/ha; for pest or weed control at 250 g/ha: 250 g ai/ha
In short: as §2

[5] = test system: large (Lg) crabgrass (Digitaria sanguinalis); assay: as above; details: Digitaria sanguinalis; for pest or weed control at 62 g/ha: 62 g ai/ha; for pest or weed control at 125 g/ha: 125 g ai/ha; for pest or weed control at 250 g/ha: 250 g ai/ha
In short: as §2

[6] = test system: corn (Zea mays); assay: as above; details: Zea mays; for Corn plant response rating (crop injury, 0 = no effect, 100 = complete kill) at 250 g/ha: 250 g ai/ha
In short: as §2

[7] = test system: ragweed (common ragweed, Ambrosia elatior); assay: as above; details: Ambrosia artemisiifolia; for pest or weed control at 62 g/ha: 62 g ai/ha; for pest or weed control at 250 g/ha: 250 g ai/ha
In short: as §2

[8] = test system: lambsquarters (Chenopodium album); assay: as above; details: Chenopodium album; for pest or weed control at 62 g/ha: 62 g ai/ha; for pest or weed control at 125 g/ha: 125 g ai/ha; for pest or weed control at 250 g/ha: 250 g ai/ha
In short: as §2

[9] = test system: yellow nutsedge (Cyperus esculentus); assay: as above; details: Cyperus; for pest or weed control at 62 g/ha: 62 g ai/ha; for pest or weed control at 125 g/ha: 125 g ai/ha; for pest or weed control at 250 g/ha: 250 g ai/ha
In short: as §2

[10] = test system: galium (catchweed bedstraw, Galium aparine); assay: as above; details: Galium; for pest or weed control at 62 g/ha: 62 g ai/ha; for pest or weed control at 125 g/ha: 125 g ai/ha; for pest or weed control at 250 g/ha: 250 g ai/ha
In short: as §2

[11] = test system: pigweed (Amaranthus retroflexus); assay: as above; details: Amaranthus retroflexus; for pest or weed control at 62 g/ha: 62 g ai/ha; for pest or weed control at 125 g/ha: 125 g ai/ha; for pest or weed control at 250 g/ha: 250 g ai/ha
In short: as §2

[12] = test system: velvetleaf (Abutilon theophrasti); assay: as above; details: Abutilon theophrasti; for pest or weed control at 62 g/ha: 62 g ai/ha; for pest or weed control at 125 g/ha: 125 g ai/ha; for pest or weed control at 250 g/ha: 250 g ai/ha
In short: as §2

[13] = test system: blackgrass (Alopecurus myosuroides); assay: as above; details: Alopecurus myosuroides; for pest or weed control at 62 g/ha: 62 g ai/ha; for pest or weed control at 125 g/ha: 125 g ai/ha; for pest or weed control at 250 g/ha: 250 g ai/ha
In short: as §2

[14] = test system: winter wheat (Triticum aestivum); assay: as above; details: Triticum aestivum; for plant injury at 62 g/ha: 62 g ai/ha; for plant injury at 125 g/ha: 125 g ai/ha; for plant injury at 250 g/ha: 250 g ai/ha
In short: as §2

[15] = post-emergence, Postemergence, read-out: Plant response rating (0 to 100), Morningglory
[16] = post-emergence, Postemergence, scale 0 to 100
[17] = pre-emergence, Preemergence, read-out: Plant response rating, Morningglory
[18] = pre-emergence, Preemergence, 500 g ai/ha
[19] = post-emergence, Postemergence, read-out: Plant response rating (0 to 100), Johnsongrass
[20] = pre-emergence, Preemergence, read-out: Plant response rating, Johnsongrass
[21] = post-emergence, Postemergence, read-out: Plant response rating (0 to 100), Crabgrass, Large
[22] = pre-emergence, Preemergence, read-out: Plant response rating, Crabgrass, Large
[23] = post-emergence, Postemergence, read-out: Plant response rating (0 to 100), Lambsquarters
[24] = pre-emergence, Preemergence, read-out: Plant response rating, Lambsquarters
[25] = post-emergence, Postemergence, read-out: Plant response rating (0 to 100), Nutsedge, Yellow
[26] = pre-emergence, Preemergence, read-out: Plant response rating, Nutsedge, Yellow
[27] = post-emergence, Postemergence, read-out: Plant response rating (0 to 100), Galium
[28] = pre-emergence, Preemergence, read-out: Plant response rating, Galium
[29] = post-emergence, Postemergence, read-out: Plant response rating (0 to 100), Pigweed
[30] = pre-emergence, Preemergence, read-out: Plant response rating, Pigweed
[31] = post-emergence, Postemergence, read-out: Plant response rating (0 to 100), Velvetleaf
[32] = pre-emergence, Preemergence, read-out: Plant response rating, Velvetleaf
[33] = pre-emergence, Preemergence, read-out: Plant response rating, Blackgrass
[34] = post-emergence, Postemergence, read-out: Plant response rating (0 to 100), Wheat
[35] = pre-emergence, Preemergence, read-out: Plant response rating, Wheat

## Clc1cc(Cl)cc(-c2n[nH]cc2C(=NN2CCCC2)c2ccccc2)c1 [Compound 30, N-[[3-(3,5-dichlorophenyl)-1H-pyrazol-4-yl]phenylmethylene]-1-pyrrolidinamine]
[1]; 31 g ai/ha
  Plant response rating (0 to 100), Barley: 0
[1]; 62 g ai/ha
  Plant response rating (0 to 100), Barley: 0
[1]; 125 g ai/ha
  Plant response rating, Barley: 0
[1]; 250 g ai/ha
  Plant response rating, Barley: 0
[2]; 62 g ai/ha
  Plant response rating (0 to 100), Windgrass: 0
[2]; 125 g ai/ha
  Plant response rating (0 to 100), Windgrass: 0
[2]; 250 g ai/ha, scale 0 to 100
  Plant response rating, Windgrass: 0
[3]; [15]
  pest or weed control at 62 g/ha: 0%
  pest or weed control at 125 g/ha: 0%
[3]; [16]
  pest or weed control at 250 g/ha: 0%
[3]; [17]
  pest or weed control at 62 g/ha: 10%
  pest or weed control at 125 g/ha: 15%
[3]; pre-emergence, Preemergence
  pest or weed control at 250 g/ha: 15%
[3]; [18]
  pest or weed control at 500 g/ha: 15%
[4]; [19]
  pest or weed control at 62 g/ha: 0%
  pest or weed control at 125 g/ha: 0%
[4]; [16]
  pest or weed control at 250 g/ha: 0%
[4]; [20]
  pest or weed control at 62 g/ha: 0%
  pest or weed control at 125 g/ha: 0%
[4]; pre-emergence, Preemergence
  pest or weed control at 250 g/ha: 0%
[4]; [18]
  pest or weed control at 500 g/ha: 0%
[5]; post-emergence, Postemergence, 31 g ai/ha, read-out: Plant response rating (0 to 100), Crabgrass, Large
  pest or weed control at 31 g/ha: 0%
[5]; [21]
  pest or weed control at 62 g/ha: 0%
  pest or weed control at 125 g/ha: 0%
[5]; [16]
  pest or weed control at 250 g/ha: 0%
[5]; [22]
  pest or weed control at 62 g/ha: 0%
  pest or weed control at 125 g/ha: 0%
[5]; pre-emergence, Preemergence
  pest or weed control at 250 g/ha: 0%
[5]; [18]
  pest or weed control at 500 g/ha: 0%
[6]; post-emergence, Postemergence, 31 g ai/ha
  plant injury at 31 g/ha: 0%
[6]; post-emergence, Postemergence, 62 g ai/ha
  plant injury at 62 g/ha: 0%
[6]; post-emergence, Postemergence, 125 g ai/ha
  plant injury at 125 g/ha: 0%
[6]; [16]
  Corn plant response rating (crop injury, 0 = no effect, 100 = complete kill) at 250 g/ha: 0%
[6]; pre-emergence, Preemergence, 62 g ai/ha
  Corn plant response rating (crop injury, 0 = no effect, 100 = complete kill) at 62 g/ha: 0%
[6]; pre-emergence, Preemergence, 125 g ai/ha
  Corn plant response rating (crop injury, 0 = no effect, 100 = complete kill) at 125 g/ha: 0%
[6]; pre-emergence, Preemergence
  Corn plant response rating (crop injury, 0 = no effect, 100 = complete kill) at 250 g/ha: 0%
[6]; [18]
  Corn plant response rating (crop injury, 0 = no effect, 100 = complete kill) at 500 g/ha: 0%
[7]; post-emergence, Postemergence, read-out: Plant response rating (0 to 100), Ragweed
  pest or weed control at 62 g/ha: 20%
[7]; post-emergence, Postemergence, 125 g ai/ha, read-out: Plant response rating (0 to 100), Ragweed
  pest or weed control at 125 g/ha: 35%
[7]; [16]
  pest or weed control at 250 g/ha: 90%
[7]; pre-emergence, Preemergence, read-out: Plant response rating, Ragweed
  pest or weed control at 62 g/ha: 50%
[7]; pre-emergence, Preemergence
  pest or weed control at 250 g/ha: 75%
[7]; [18]
  pest or weed control at 500 g/ha: 100%
[8]; [23]
  pest or weed control at 62 g/ha: 60%
  pest or weed control at 125 g/ha: 80%
[8]; [16]
  pest or weed control at 250 g/ha: 100%
[8]; [24]
  pest or weed control at 62 g/ha: 100%
  pest or weed control at 125 g/ha: 100%
[8]; pre-emergence, Preemergence
  pest or weed control at 250 g/ha: 100%
[8]; [18]
  pest or weed control at 500 g/ha: 100%
[9]; [25]
  pest or weed control at 62 g/ha: 0%
  pest or weed control at 125 g/ha: 0%
[9]; [16]
  pest or weed control at 250 g/ha: 0%
[9]; [26]
  pest or weed control at 62 g/ha: 0%
  pest or weed control at 125 g/ha: 0%
[9]; pre-emergence, Preemergence
  pest or weed control at 250 g/ha: 0%
[9]; [18]
  pest or weed control at 500 g/ha: 0%
[10]; post-emergence, Postemergence, 31 g ai/ha, read-out: Plant response rating (0 to 100), Galium
  pest or weed control at 31 g/ha: 0%
[10]; [27]
  pest or weed control at 62 g/ha: 0%
  pest or weed control at 125 g/ha: 5%
[10]; [16]
  pest or weed control at 250 g/ha: 5%
[10]; [28]
  pest or weed control at 62 g/ha: 0%
  pest or weed control at 125 g/ha: 0%
[10]; pre-emergence, Preemergence
  pest or weed control at 250 g/ha: 5%
[10]; [18]
  pest or weed control at 500 g/ha: 10%
[11]; [29]
  pest or weed control at 62 g/ha: 100%
  pest or weed control at 125 g/ha: 100%
[11]; [16]
  pest or weed control at 250 g/ha: 100%
[11]; [30]
  pest or weed control at 62 g/ha: 60%
  pest or weed control at 125 g/ha: 98%
[11]; pre-emergence, Preemergence
  pest or weed control at 250 g/ha: 100%
[11]; [18]
  pest or weed control at 500 g/ha: 100%
[12]; [31]
  pest or weed control at 62 g/ha: 85%
  pest or weed control at 125 g/ha: 85%
[12]; [16]
  pest or weed control at 250 g/ha: 98%
[12]; [32]
  pest or weed control at 62 g/ha: 65%
  pest or weed control at 125 g/ha: 70%
[12]; pre-emergence, Preemergence
  pest or weed control at 250 g/ha: 75%
[12]; [18]
  pest or weed control at 500 g/ha: 100%
[13]; post-emergence, Postemergence, 31 g ai/ha, read-out: Plant response rating (0 to 100), Blackgrass
  pest or weed control at 31 g/ha: 0%
[13]; post-emergence, Postemergence, read-out: Plant response rating (0 to 100), Blackgrass
  pest or weed control at 62 g/ha: 0%
[13]; post-emergence, Postemergence, scale 0 to 100, read-out: Plant response rating, Blackgrass
  pest or weed control at 125 g/ha: 0%
[13]; [16]
  pest or weed control at 250 g/ha: 0%
[13]; [33]
  pest or weed control at 62 g/ha: 0%
  pest or weed control at 125 g/ha: 0%
[13]; pre-emergence, Preemergence
  pest or weed control at 250 g/ha: 0%
[13]; [18]
  pest or weed control at 500 g/ha: 0%
[14]; [34]
  plant injury at 62 g/ha: 0%
  plant injury at 125 g/ha: 0%
[14]; [16]
  plant injury at 250 g/ha: 0%
[14]; [35]
  plant injury at 62 g/ha: 0%
  plant injury at 125 g/ha: 0%
[14]; pre-emergence, Preemergence
  plant injury at 250 g/ha: 0%

From US10167262B2, “Herbicidal substituted 3-arylpyrazoles” (FMC CORPORATION, priority 2014, dated 2019)
